{
  "source": "patent US20110064773A1",
  "about": "“PHARMACEUTICAL COMPOSITIONS COMPRISING A THYROID HORMON AND THEIR THERAPEUTIC USE” (UNIVERSITE JOSEPH FOURIER, priority 2007, published 2011)",
  "experiment": "Blood rT3 dosage over 24 hours after administration",
  "type": "in vivo, rat",
  "settings": "Wistar rats",
  "experimental": "Blood rT3 dosage. The rT3 concentration is measured for 24 hours in Wistar rats treated with a high dosage of rT3 by intra-peritoneal injection (IP, square), oral ingestion (per os, triangle) or subcutaneous injection (sc, star). Basal rT3 level is measured in animal treated with placebo (lozenge).\nWistar rats were treated with rT3 hormone by a daily intraperitoneal injection (IP) (25 μg/100 g BW), a daily sub-cutaneous injection (SC) (25 μg/100 g BW), or a per os administration included in the rat food (25 μg/100 g BW). The continuous and constant administration was performed by using a pellet (25 μg/100 g BW).",
  "data": [
    {"smiles": "N[C@@H](Cc1ccc(Oc2cc(I)c(O)c(I)c2)c(I)c1)C(=O)O", "note": "[rT3, 3′,5′,3-triiodothyronine]", "values": [
      {"measurement": "Circulating rT3 (degradation)", "setting": "high dosage, intra-peritoneal injection", "result": "rapidly degraded"},
      {"measurement": "Circulating rT3 compared to the injected dose", "setting": "intra-peritoneal injection, after 5 hours", "result": "five fold decreased"},
      {"measurement": "Circulating rT3 concentration in blood", "setting": "per os administration", "result": "never allows to obtain in blood a concentration of rT3 similar with the concentration observed after intra-peritoneal injection"},
      {"measurement": "Circulating rT3 concentration in blood", "setting": "sub-cutaneous injection", "result": "remains substantially the same as the injected concentration"},
      {"measurement": "Circulating rT3 (degradation)", "setting": "sub-cutaneous injection, after 24 hours", "result": "quasi completely degraded"}
    ]}
  ]
}
